From US9421206B1, “Hematological treatments based on levomefolate” (Cox Bioscience LLC, priority 2013, dated 2016)
Where two headings read alike, the source gives them in different places.

What was measured:
[1] = tested on: Megaloblastic Bone Marrow Cells (Folate Deficiency); details: cited from earlier work
[2] = tested on: Megaloblastic Bone Marrow Cells (B12 Deficiency); details: cited from earlier work
[3] = Evaluation of NHANES 1999-2002 data: hematological markers by serum folate decile, supplement use and unmetabolized folic acid; assay type: in vivo, human; details: for effect on production of hemoglobin: seniors aged >=60 y, serum hemoglobin with rising serum folate, with or without unmetabolized folic acid; for impact on homocysteine, methylmalonic acid and lactate dehydrogenase: when homocysteine or lactate dehydrogenase levels are elevated; for effect on MCV: with rising serum folate, with or without supplement use
From the text: An evaluation of data gathered through NHANES was undertaken to determine the effect of unmetabolized folic acid on serum hemoglobin concentrations. NHANES monitors the nation's health and nutritional status. The survey is currently implemented as a continuous annual survey and uses a complex multistage probability design to select a representative sample of the non-institutionalized US civilian population. Consistent with NHANES analytic guidelines, this example combines data from two separate survey periods spanning 1999-2002. The methods used herein are described in greater detail in Morris et al., AM. J. CLIN. NUTR. 2012; 91:1733-44, and are repeated herein for a more thorough understanding. A detailed description of blood collection and processing can be found in the NHANES Laboratory Procedures Manual. This particular example focuses on seniors (i.e., those aged ≧60 y), and included 3706 senior survey participants. Hemoglobin concentrations were measured at the MEC laboratory by using a MAXM hematology flow cytometer (Beckman Coulter Inc, Fullerton, Calif.). Detailed methods for all the biochemical assays can be found in the NHANES Laboratory Procedures Manuals. Eligible participants were divided into ten […] based on their serum folate concentrations, so that decile 1 includes the 10% of the participants having the lowest serum folate concentrations, decile 10 includes the 10% of the participants having the highest serum folate concentrations. etc. Participants in each decile were then further subdivided based on the detection of unmetabolized folic acid, and/or the participant's serum B12 or serum iron concentration, and mean hemoglobin concentrations calculated for each decile. Data analyses were performed by using SUDAAN release 9.0 (Research Triangle Institute, Research Triangle Park, N.C.) with appropriate sampling weights, pseudo primary sampling units, and stratification variables to account for the survey's complex sampling design.

[4] = Reanalysis of NHANES 1988-1994 vs 1999-2004: impact of folic acid supplement use on anemia and macrocytosis; assay type: in vivo, human; details: men; 1988-1994 to 1999-2004, with increased use of folic acid supplements
From the text: In order to determine whether folic acid supplements could be affecting the incidence of macrocytosis in the United States or whether folic acid supplements could be negatively influencing macrocytic processes, NHANES data reported in Ganji et al., AM. J. CLIN. NUTR. 2009; 89:363-71, were reanalyzed, this time over an extended time period from 1988-1994 until 1999-2004, to determine the impact of supplement use on the incidence of macrocytosis and mean corpuscular volume. Unless otherwise indicated, NHANES data collection methods were substantially the same as in Examples 1 and 2. This study used data from 4 surveys: NHANES 1988-1994, NHANES 1999-2000, NHANES 2001-2002, and NHANES 2003-2004. […] For NHANES 1988-1994 and 1999-2004, multivariate-adjusted and univariate values for hemoglobin, hematocrit, and MCV and prevalence rates (%) for overall anemia and macrocytosis were determined according to sex, race-ethnicity, age, poverty, and vitamin/mineral supplement use (yes or no). Prevalence of anemia (%) based on low hemoglobin concentrations and prevalence of macrocytosis (%) based on high MCV values were determined for the aforementioned demographic categories. The differences in hemoglobin, hematocrit, MCV, and prevalence of anemia and macrocytosis between NHANES 1988-1994 and NHANES 1999-2004 were determined with a 2-tailed unpaired t test. […]

[5] = apparently healthy human subjects; cited from earlier work
[6] = concentration 0.3 (unit not given)
[7] = concentration 1 (unit not given)
[8] = concentration 3 (unit not given)
[9] = concentration 6 (unit not given)
[10] = concentration 30 (unit not given)
[11] = B12 deficiency, concentration 0.3 (unit not given)
[12] = B12 deficiency, concentration 1 (unit not given)
[13] = B12 deficiency, concentration 3 (unit not given)
[14] = B12 deficiency, concentration 6 (unit not given)
[15] = B12 deficiency, concentration 15 (unit not given)
[16] = B12 deficiency, concentration 30 (unit not given)
[17] = concentration 15 (unit not given)
[18] = concentration 300 (unit not given)
[19] = B12 deficiency, concentration 75 (unit not given)
[20] = B12 deficiency, concentration 300 (unit not given)

In the case of `Nc1nc(=O)c2c([nH]1)NCC(CNc1ccc(C(=O)N[C@@H](CCC(=O)O)C(=O)O)cc1)N2C=O` (mixture of isomers) [folinic acid], the “dU suppression test value” [1, 6] is listed as 3.4%, the “dU suppression test value” [1, 7] is listed as 1.9% and the “dU suppression test value” [1, 8] is listed as 1.9%. For the same molecule, the “dU suppression test value” [1, 9] was 1.3%, the “dU suppression test value” [1, 10] was 1.0% and the “dU suppression test value” [2, 11] was 4.5%. For the same molecule, the “dU suppression test value” [2, 12] was 2.5%, the “dU suppression test value” [2, 13] was 1.9% and the “dU suppression test value” [2, 14] was 2.0%. For the same molecule, the “dU suppression test value” [2, 15] was 2.2%, the “dU suppression test value” [2, 16] was 1.6% and the “effectiveness in overcoming the defect in DNA precursor synthesis” value ([2]; all types of vitamin deficiency) was “most effective”.
In the case of `Nc1nc2ncc(CNc3ccc(C(=O)N[C@@H](CCC(=O)O)C(=O)O)cc3)nc2c(=O)[nH]1` [folic acid], the “dU suppression test value” [1, 7] is listed as 10.3%, the “dU suppression test value” ([1]; concentration 5 (unit not given)) is listed as 5.5% and the “dU suppression test value” ([1]; concentration 50 (unit not given)) is listed as 2.3%. For the same molecule, the “effect on MCV in survey participants with elevated LDH levels” value ([3]; LDH > 198 U/L, as folate concentrations increased) was “increased the MCV”, the “effect on red cell count” value ([3]; same folate levels, with vs without folic acid supplements) was “red cell count is improved in the absence of folic acid” and the “effect on production of hemoglobin” value [3] was “reduces the production of hemoglobin”. For the same molecule, the “impact on homocysteine, methylmalonic acid and lactate dehydrogenase” value [3] was “negative impact”, the “effect on MCV” value [3] was “leads to increases in MCV” and the “dU suppression test value” [2, 12] was 14.8%. The “dU suppression test value” [2, 13] was 12%, the “dU suppression test value” ([2]; B12 deficiency, concentration 50 (unit not given)) was 4.1% and the incidence of macrocytosis [4] was “increased”. The prevalence of anemia [4] was “dropped”.
For `CN1c2c(nc(N)[nH]c2=O)NC[C@@H]1CNc1ccc(C(=O)N[C@@H](CCC(=O)[O-])C(=O)[O-])cc1.[Ca+2]` [me-THF, L-5-methyltetrahydrofolate], the “dU suppression test value” [1, 8] is given as 3.9%, the “dU suppression test value” [1, 9] is given as 4.6% and the “dU suppression test value” [1, 17] is given as 2.7%. The “dU suppression test value” [1, 10] was 4.5%, the “dU suppression test value” [1, 18] was 4.3% and the “effect on production of hemoglobin” value [3] was “promotes the production of hemoglobin”. The “impact on homocysteine, methylmalonic acid and lactate dehydrogenase” value [3] was “positive impact”, the “effect on MCV” value [3] was “generally leads to a reduction in MCV” and the “dU suppression test value” [2, 13] was 16.1%. The “dU suppression test value” [2, 16] was 12.9%, the “dU suppression test value” [2, 19] was 18.4% and the “dU suppression test value” [2, 20] was 15.7%. The “concentration restoring normal dU suppression” value ([2]; vitamin B12 deficiency) was greater than 300 µg/mL and the “effect on homocysteine levels” value [5] was “decrease homocysteine levels”.
In the case of tetrahydrofolate [THF], the “dU suppression test value” [1, 6] is given as 14.3%, the “dU suppression test value” [1, 7] is given as 8.6% and the “dU suppression test value” [1, 8] is given as 4.0%. The “dU suppression test value” [1, 9] was 2.5%, the “dU suppression test value” [1, 17] was 2.1% and the “dU suppression test value” [1, 10] was 2.2%. The “dU suppression test value” [1, 18] was 1.9%, the “dU suppression test value” [2, 11] was 10.8% and the “dU suppression test value” [2, 12] was 8.1%. For the same molecule, the “dU suppression test value” [2, 13] was 9.3%, the “dU suppression test value” [2, 14] was 6.3% and the “dU suppression test value” [2, 15] was 4.9%. The “dU suppression test value” [2, 16] was 5.0%, the “dU suppression test value” [2, 19] was 3.5% and the “dU suppression test value” [2, 20] was 2.4%. For the same molecule, the “level giving correction of dU suppression” value ([2]; megaloblastic anemia due to vitamin B12 deficiency) was “above 6 mL/ml”.
In the case of “α-(5,6-dimethylbenzimidazolyl)cobamide [B12]”, the “dU suppression test value” ([1]; 10 mcg/ml) is given as 12.3%, the “dU suppression test value” ([1]; 100 mcg/ml) is given as 16.3% and the “dU suppression test value” ([2]; B12 deficiency, 10 mcg/ml) is given as 5.8%. The “dU suppression test value ((3H)-TdR incorporation with dU as percentage of incorporation without dU)” value ([2]; B12 deficiency, 100 mcg/ml) was 5.7%.
